Data on 4 compounds can be found in article PMC9458217, “Synthesis and Biological Evaluation of Cassane Diterpene (5α)-Vuacapane-8(14), 9(11)-Diene and of Some Related Compounds” (Molecules, 2022).

≈ marks a conversion by molar mass, not a printed value. Where “and” joins values, the source holds several entries; their conditions need not be identical. Equal entries are not always repeated. Where two headings read alike, the source gives them in different places.

In experiment [1] the test system is HT29 colon adenocarcinoma cells. The experiment can be described thus: HT29 cell cycle arrest and distribution, flow cytometry with PI. The format is cell-based, human. As to conditions: for decrease in S phase cell percentage / increase of G0/G1 phase population with respect to untreated control: 72 h. The source says: Flow cytometry was used to measure DNA ploidy and to determine possible alterations in cell cycle profiles. […]. […] […]. Changes in the G2/M phase were less significant. Although changes in the cell cycle were observed, they were of a lower magnitude and insignificant for compound 20. Therefore, those changes could be produced by the apoptotic process activation and not by cytostatic or differentiation process induction. […]. Further assays will be necessary to asseverate this point.
The method was performed by flow cytometry after propidium iodide staining (PI). […]. After that, cells were stored on ice and were stained with 20 µL of 1 mg/mL PI solution just before measurement. Approximately 10 × 10^3 cells were analysed in each experiment. The experiments were performed three times with two replicates per assay. Finally, the samples were analysed using a flow cytometer and the number of cells in each stage of the cell cycle was estimated by fluorescence-associated cell sorting (FACS) at 488 nm in an Epics XL flow cytometer (Coulter Corporation, Hialeah, FL, USA).

In experiment [2] the test system is HepG2 human hepatocarcinome cell-line. The experiment can be described thus: MTT cytotoxicity on HepG2 cells. Particulars: HepG2, 72 h.
Description: (§2) These studies were performed using the MTT assay, based on formazan dye formation and expressed as a percentage with respect to untreated control cells (100% of cell metabolism).
(§3) The effect of compounds on the cell viability was determined by the MTT method [27] (Sigma, St. Louis, MO, USA). The cytotoxicity of the compounds was detected by measuring the absorbance of MTT dye staining of cells with metabolism capacity. […] Finally, after 72 h, 100 μL of MTT solution (0.5 mg/mL) in 50% of PBS and 50% of the medium was added to each well. After 1.5 h of incubation, formazan was re-suspended in 100 μL of DMSO, and each concentration was tested in triplicate.
(§4) Experimental cytotoxicity data were fitted to a sigmoidal function (y = ymax/ (x/a)^−b) by non-linear regression. […] All shown data are representative of at least two independent experiments performed in triplicate. All quantitative data were summarized as the means ± standard deviation (SD).
The subject of experiment [3] is RAW 264.7 cells, activated by LPS. The experiment can be described thus: Cell cycle distribution of LPS-activated RAW 264.7 cells, flow cytometry with PI. In kind it is cell-based, murine. How it is done:
The cell-cycle distribution was analyzed by flow cytometry with propidium iodide (IP) staining (Figure 3). Significant growth arrest of the cell cycle in LPS-induced RAW 264.7 cells produced 100% detention in the G0/G1 phase (positive control) compared to the negative control (49.6%). After incubation with compound 20, the percentage of cells found in the G0/G1 phase was 29%, 32%, and 36%, respectively, at the assayed concentrations. Similar results were found for compound 16 (35%, 38%, and 39%) after 72 h of incubation at the same concentrations. This decrease was accompanied by the consequent increase in the number of cells in the S phase: 70%, 68%, and 56%, respectively, for compound 20, and 63%, 61%, and 59% for compound 16. […] This recovery of the cell cycle with respect to control cells (only LPS treated) could be a consequence of the anti-inflammatory effect produced by the tested compounds, which increase cell division, rescuing RAW 264.7 cells from LPS-induced arrest during their monocyte/macrophage differentiation process.
DNA content is directly proportional to the PI fluorescence; it allows us to determine the percentage of cells in each cell cycle phase. Using a fluorescence-activated cell sorter (FACS) at 488 nm in an Epics XL flow cytometer (Coulter Corporation, Hialeah, FL, USA), cell subpopulations could be visualized with different DNA contents. […] By treating cells only with LPS, the positive control was performed. However, the negative control was prepared, exposing cells […]. After treatment, cells were washed twice with PBS and trypsine solution, then resuspended in TBS 1X (10 Mm Tris, 150 Mm NaCl) and then Vindelov buffer (100 mM Tris, 100 Mm NaCl, 10 mg/mL Rnasa, 1 mg/mL PI, pH 8) was added. The samples were placed for 15 min on ice. Immediately before FACS analysis, cells were stained with 20 μL of 1 mg/mL PI solution. Data were analyzed to determine the percentage of cells in each cell cycle phase (G0/G1, S, and G2/M).

In experiment [4] the test system is HT29 human colorectal adenocarcinoma cell line. The experiment can be described thus: MTT cytotoxicity on HT29 cells. Particulars: HT-29, 72 h.
Description: as §2, §3, §4
For experiment [5], the system named is colon adenocarcinoma HT29 cells. The experiment can be described thus: Mitochondrial membrane potential, Rh123/PI flow cytometry in HT29 cells. In kind it is cell-based, human. As to conditions: HT29, IC50 and IC80 concentrations, 72 h. The source says:
The apoptotic effects of anticancer agents can occur through the activation of two major apoptotic pathways: intrinsic and extrinsic apoptotic pathways, Thus, the study of the loss of the mitochondrial membrane potential (MMP) of tumor cells can provide information on the activation mechanism and the apoptotic pathway induced in response to anticancer compounds. When the mitochondria undergo disruption and are involved in the loss of MMP, the activation is then intrinsic (mitochondrial).
The electrochemical gradient across the mitochondrial membrane was studied by analytical flow cytometry using dihydrorhodamine (DHR). […] The medium renewal was achieved by adding fresh medium with DHR to a final concentration of […]. […] The fluorescence intensity was measured using a FACScan flow cytometer (fluorescence-activated cell sorter). The experiments were performed three times with two replicates per assay.

The test system of experiment [6] is LPS-stimulated RAW 264.7 murine macrophage cells. The experiment can be described thus: Inhibition of NO production (nitrite, Griess reaction) in LPS-stimulated RAW 264.7 cells. The format is cell-based. Particulars: LPS-activated RAW 264.7, 72 h of incubation. How it is done:
The activation of the inflammatory process induces nitric oxide, NO, released as a second messenger. NO production can be used as the main indicator to assess inflammatory activity, which can be measured using nitrite (NO^2–) quantification (proportional to the released NO), determined through the Griess reaction. […] Inhibition percentages were calculated with respect to the increase between positive control (only LPS treated control cells) and negative control (untreated control cells).
The absorbance was referred to nitrite standard curve to determine the concentration of nitrite in the supernatant of each experimental sample. The percentage of NO production was determined, assigning 100% at the increase between negative control (untreated cells) and positive control (cells only treated with 10 μg/mL of LPS).
(§1) Experimental cytotoxicity data were fitted to a sigmoidal function (y = ymax/ (x/a)^−b) by non-linear regression. […] Similar analyses were performed to obtain the IC50 of NO production (IC50 NO). All shown data are representative of at least two independent experiments performed in triplicate. All quantitative data were summarized as the means ± standard deviation (SD).

The test system of experiment [7] is RAW 264.7 monocyte/macrophage murine cells. The experiment can be described thus: MTT cytotoxicity on RAW 264.7 cells. As to conditions: Mus musculus. The format is cell-based. How it is done:
MTT is transformed to formazan in cells with metabolism capacity (viable cells), as the number of viable cells is proportional to formazan concentration; this assay was used to determine the cytotoxicity of the compounds.
In all experiments, subconfluent monolayer cells were used.
The effect of compounds on the cell viability was determined by the MTT method (Sigma, St. Louis, MO, USA). The cytotoxicity of the compounds was detected by measuring the absorbance of MTT dye staining of cells with metabolism capacity. […] Finally, after 72 h, 100 μL of MTT solution (0.5 mg/mL) in 50% of PBS and 50% of the medium was added to each well. After 1.5 h of incubation, formazan was re-suspended in 100 μL of DMSO, and each concentration was tested in triplicate.
as §1

The next experiment relates to HT29 cells. The experiment can be described thus: Annexin V-FITC/PI flow cytometry (apoptosis) in HT29 cells. As to conditions: 72 h. The format is cell-based, human. How it is done:
Most currently used anticancer drugs trigger the apoptosis process as a key target and induce it in cancer cells. Phosphatidylserine (PS) externalization is a typical characteristic of early phase apoptosis. […].
As such wise, apoptosis was assessed by flow cytometry using a FACScan (fluorescence-activated cell sorter) flow cytometer (Coulter Corporation, Hialeah, FL, USA). For this assay, 5 × 10^4 HT29 cells were plated in 24-well plates with 1.5 mL of medium and incubated for 24 h. […] The cells were collected and resuspended in a binding buffer (10 mM HEPES/NaOH, pH 7.4, 140 mM NaCl, 2.5 mM CaCl2). At room temperature in darkness, Annexin V-FITC conjugate (1 μg/mL) was then added and incubated for 15 min. Cells were stained with 5 μL of 1 mg/mL PI solution, just before the analysis. In each experiment, approximately 10 × 10^3 cells were analyzed, and the experiment was duplicated twice.

In the next experiment the test system is Micrococcus flavus. The arrangement: method as in PMID 17418286. As to conditions: cited from earlier work.
A further experiment relates to Staphylococcus aureus. The arrangement: method as in PMID 17418286. As to conditions: cited from earlier work.
Experiment [8] deals with LPS-induced J774.A1 macrophage cells. The arrangement: method as in PMID 34990974. As to conditions: 50 μM, natural compounds; cited from earlier work.
Another experiment deals with NO. The arrangement: method as in PMID 34990974. Particulars: read-out: NO inhibition IC50; cited from earlier work.

As for `Cc1c(C=O)c(O)cc2c1CC[C@H]1C(C)(C)CCC[C@]21C` [Compound 20], the “cell cycle arrest at the G0/G1 phase (cell percentage)” value in experiment [1] (HT29, IC50 concentration) was 63.6%; in experiment [1] (HT29, IC80 concentration), 66.6%. The “decrease in S phase cell percentage” value in experiment [1] (HT29, IC50 concentration) amounted to 6%; in experiment [1] (HT29, IC80 concentration), 10.7%. In addition, the “increase of G0/G1 phase population with respect to untreated control” value (“increase of G0/G1 phase population” for short) in [1] (HT29, IC50 concentration) is recorded as 6%; in [1] (HT29, IC80 concentration), 9%. Also, the 50% inhibitory concentration (IC50) in experiment [2] is 8.41 ± 0.3 µg/mL (≈ 29.4 µM); in [4] (HT29, MTT, 72 h), roughly 3 µg/mL (≈ 10.5 µM); in [6] (Mus musculus, RAW264.7, 72 h) it was 5.71 ± 0.14 µg/mL (≈ 19.9 µM); in [7] (RAW264.7, RAW 264.7, MTT, 72 h of incubation, read-out: IC50), 8.34 ± 2.51 µg/mL (≈ 29.1 µM). For the same compound, the “cells in the S phase” value turned out to be 70% in experiment [3] (¼ IC50, 72 h); 68% in experiment [3] (½ IC50, 72 h); 56% in [3] (¾ IC50, 72 h). Besides, the “percentage of cells in the G0/G1 phase” value in [3] (¼ IC50, 72 h, LPS control 100%, negative control 49.6%) is on record as 29%; in experiment [3] (½ IC50, 72 h), 32%; in experiment [3] (¾ IC50, 72 h), 36%. In addition, the “changes in the G2/M phase” value in experiment [3] (¼, ½ and ¾ IC50, 72 h) is recorded as “not significant”. Further, in experiment [5], the “changes in mitochondrial membrane potential (MMP), Rh123 staining” value was “did not produce any changes in MMP”. The “IC50 NO” value in [6] worked out at 2.98 ± 0.04 µg/mL (≈ 10.4 µM). The IC20 in experiment [7] (RAW264.7, RAW 264.7, MTT, 72 h of incubation, 20% cell viability inhibition, read-out: IC20) was 7.86 ± 3.97 µg/mL (≈ 27.4 µM). Further, the IC80 in [7] (RAW264.7, RAW 264.7, MTT, 72 h of incubation, 80% cell viability inhibition, read-out: IC80) was 9.35 ± 0.95 µg/mL (≈ 32.6 µM). Also, the early apoptosis is 27.57% in the experiment with HT29 cells (HT29, IC50 concentration) and 41.40% with HT29 cells (HT29, IC80 concentration). For the same compound, the late apoptosis is on record as 49.97% in the experiment on HT29 cells (HT29, IC50 concentration) and 45.40% in the experiment with HT29 cells (HT29, IC80 concentration). Besides, the “total apoptosis (early plus late apoptotic cells)” value (shortened to “total apoptosis”) with HT29 cells (HT29, IC50 concentration) was 76.25%; with HT29 cells (HT29, IC80 concentration), 80% and 86.8%.
`COC(=O)[C@@]1(C)CCC[C@]2(C)c3cc4occc4c(C)c3CC[C@@H]12` [benthaminin 1]: the minimal inhibitory concentration (MIC) in the experiment with Micrococcus flavus and in the experiment with Staphylococcus aureus was 47.8 µM (≈ 15.6 µg/mL) each time.
On to `Cc1c2c(cc3c1CCC1C(C)(C)CCCC31C)OC(O)C2` (centres unmarked) [Compound 6, pterolobirin G], for which, in experiment [1] (HT29, IC50 concentration), the “decrease in S phase cell percentage” value worked out at 17.3% and the “increase of G0/G1 phase population” value is given as 13.6%. In addition, in [1] (HT29, IC80 concentration), the “decrease in S phase cell percentage” value is 30.36% and the “increase of G0/G1 phase population” value came to 29%. For the same compound, in [4], the half-inhibitory concentration (IC50) was roughly 3 µg/mL (≈ 9.99 µM). For the same compound, in experiment [5], the “changes in mitochondrial membrane potential (MMP), Rh123 staining” value is recorded as “did not produce any changes in MMP”. Besides, in [7] (RAW264.7, 72 h), the 20% effect level (IC20) was put at 12.7 ± 0.3 µg/mL (≈ 42.2 µM), the IC50 came out at 15 ± 0.32 µg/mL (≈ 49.9 µM) and it took 18.6 ± 0.45 µg/mL (≈ 61.8 µM) to reach the 80% level (IC80). For the same compound, in the experiment on HT29 cells (HT29, IC50 concentration), the “total apoptosis” value is 18.30%. Besides, in the experiment with HT29 cells (HT29, IC80 concentration), the early apoptosis is 48.83%, the late apoptosis is 23% and the “total apoptosis” value is 80%. In experiment [8], the “inhibition of NO production” value was “did not show any significant inhibition of NO production”.
Take `CC(=O)O[C@H]1Cc2c(cc3occc3c2C)[C@@]2(C)CCCC(C)(C)[C@H]12` [sucutinirane C]: the IC50 in the experiment with NO was 24.4 ± 1.34 µM.
